Test [1] concerns the target T1, PRMT5 (Homo sapiens, UniProt O14744).
T1 construct: purchased Viva (custom protein)
Briefly: PRMT5 biochemical IC50 assay with SAM as cofactor. To be noted: PRMT5, SAM as cofactor; read-out: SAM IC50.

For test [2], the target named is T1, PRMT5. The test can be described thus: PRMT5 biochemical IC50 assay with no cofactor. To be noted: PRMT5, no cofactor. The text has this:
Table 1 indicates IC50 values (μM) against PRMT5 for exemplary compounds in the presence of SAM as cofactor, with no cofactor, and with MTA as cofactor, respectively (columns 4-6). […] Ki values can be calculated from the IC50 values as described in the Examples section. As detailed in the Examples section, for the assay performed in the presence of SAM, IC50=Ki×1.5 (Ki=IC50/1.5).

Test [3] has as its target T1, PRMT5. Briefly: PRMT5 biochemical IC50 assay with MTA as cofactor. The settings on record: PRMT5, MTA as cofactor; read-out: MTA IC50.
Test [4] deals with HAP1 MTAP-intact cell line. Briefly: SDMA in-cell western assay, HAP1 MTAP-intact. The class given is cell-based. The settings on record: HAP1 MTAP-intact, read-out: MTAP HAP1 intact IC50. In outline:
(§1)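 MTAP-null vs endogenous-MTAP HAP1 isogenic cells; in-cell western SDMA readout; IC50 per line.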

Test [5] relates to HAP1 MTAP-deleted cell line. Briefly: SDMA in-cell western assay, HAP1 MTAP-deleted. It is filed as cell-based. To be noted: for IC50: HAP1 MTAP-deleted; for MTAP intact/deleted ratio: IC50 ratio HAP1 MTAP-intact / HAP1 MTAP-deleted. In outline: as §1
The subject of test [6] is HAP1 MTAP-deleted cell line. The test can be described thus: Viability assay, MTAP-deleted cell line. It is filed as cell-based. To be noted: MTAP-deleted cell line, read-out: HAP1 MTAP deleted viability. The text has this:
Table 1 additionally indicates IC50 values in a viability assay for the MTAP-deleted cell line (column 10), indicating the effect of treatment with compound on cell survival.

The mark [7] stands for this setting: read-out: No Cofactor/ rel IC50.
The mark [8] stands for this setting: Homo sapiens, HAP1, SDMA in-cell western.
Setting [9] is: Homo sapiens, HAP1, SDMA in-cell western, read-out: HAP 1 MTAP deleted IC50.
[10] abbreviates: Homo sapiens, HAP1, viability assay.
Setting [11] is: Homo sapiens, HAP1, SDMA in-cell western, read-out: HAP1 MTAP deleted IC50.
The mark [12] stands for this setting: SDMA in-cell western, read-out: HAP1 MTAP deleted IC50.

Where two headings read alike, the source gives them in different places.

T1 sequence (O14744 whole entry): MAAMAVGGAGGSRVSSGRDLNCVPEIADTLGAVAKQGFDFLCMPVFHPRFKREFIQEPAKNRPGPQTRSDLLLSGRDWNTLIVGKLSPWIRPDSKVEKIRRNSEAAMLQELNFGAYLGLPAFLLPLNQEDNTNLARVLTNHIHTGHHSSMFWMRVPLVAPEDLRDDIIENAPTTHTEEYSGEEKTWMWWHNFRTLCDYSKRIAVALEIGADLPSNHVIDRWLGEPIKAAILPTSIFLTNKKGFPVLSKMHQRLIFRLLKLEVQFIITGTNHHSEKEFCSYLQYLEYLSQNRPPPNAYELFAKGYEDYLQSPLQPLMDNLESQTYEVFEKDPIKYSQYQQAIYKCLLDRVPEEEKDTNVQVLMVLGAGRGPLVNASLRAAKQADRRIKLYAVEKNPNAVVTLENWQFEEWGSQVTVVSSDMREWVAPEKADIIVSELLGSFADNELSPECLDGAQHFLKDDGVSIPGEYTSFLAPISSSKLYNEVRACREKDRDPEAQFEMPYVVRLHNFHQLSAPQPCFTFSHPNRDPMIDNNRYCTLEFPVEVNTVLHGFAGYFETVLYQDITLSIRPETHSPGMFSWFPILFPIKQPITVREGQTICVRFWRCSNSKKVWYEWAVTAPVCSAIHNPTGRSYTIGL
T1 sequence (Q9BQA1 whole entry partner): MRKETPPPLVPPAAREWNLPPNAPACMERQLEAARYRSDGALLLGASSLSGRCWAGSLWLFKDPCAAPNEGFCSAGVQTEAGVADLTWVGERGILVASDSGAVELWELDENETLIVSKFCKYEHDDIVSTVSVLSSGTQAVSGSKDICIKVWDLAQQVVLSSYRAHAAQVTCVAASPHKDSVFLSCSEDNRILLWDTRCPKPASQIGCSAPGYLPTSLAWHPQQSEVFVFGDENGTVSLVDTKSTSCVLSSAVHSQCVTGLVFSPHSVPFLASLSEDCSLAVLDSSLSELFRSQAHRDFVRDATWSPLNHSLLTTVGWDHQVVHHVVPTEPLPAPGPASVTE

In the case of `C[C@H]1CC[C@@H](C2CCCCC2)N(C(=O)C(=O)Nc2cncc(C(N)=O)c2)C1` (single isomer, unassigned) [Compound 121], the IC50 on PRMT5 [1] was 50 to 500 nM; on PRMT5 [2] (setting [7]), 50 to 500 nM; at PRMT5 [3], below 50 nM; in test [4] (setting [8]), above 1000 nM; in test [5] (setting [9]), below 100 nM; in test [6] (setting [10]), 1 to 10 µM. Also, the “MTAP intact/deleted ratio” value in test [5] (SDMA in-cell western) is on record as “A (an IC50 ratio greater than or equal to 10 fold)”.

Consider `Cc1cc(NC(=O)C(=O)N2C[C@H]3CC[C@H](C3)[C@H]2c2cccs2)cnc1N` (single isomer, unassigned) [Compound 134], for which the IC50 is above 500 nM on PRMT5 [1]; above 500 nM on PRMT5 [2] (setting [7]); above 500 nM on PRMT5 [3]; above 1000 nM in test [4] (setting [8]); above 1000 nM in test [5] (setting [9]); above 10 µM in test [6] (setting [10]). In test [5] (SDMA in-cell western), the “MTAP intact/deleted ratio” value is “C (an IC50 ratio of less than 3 fold)”.

`Cc1cc(NC(=O)C(=O)N2C[C@@H]3CC[C@@H](C3)[C@@H]2c2cccs2)cnc1N` (single isomer, unassigned) [Compound 137]: the IC50 was 50 to 500 nM on PRMT5 [1]; 50 to 500 nM on PRMT5 [2] (setting [7]); below 50 nM at PRMT5 [3]; above 1000 nM in test [4] (setting [8]); below 100 nM in test [5] (setting [9]); above 10 µM in test [6] (setting [10]). Further, the “MTAP intact/deleted ratio” value in test [5] (SDMA in-cell western) was “A (an IC50 ratio greater than or equal to 10 fold)”.

Consider `Cc1cc(NC(=O)C(=O)N2C[C@H](C)CC[C@H]2C2CCCCC2)cnc1N` (single isomer, unassigned) [Compound 148], for which the IC50 is 50 to 500 nM on PRMT5 [1]; 50 to 500 nM on PRMT5 [2] (setting [7]); below 50 nM on PRMT5 [3]; 100 to 1000 nM in test [4] (setting [8]); below 100 nM in test [5] (setting [9]); 1 to 10 µM in test [6] (setting [10]). Moreover, in test [5] (SDMA in-cell western), the “MTAP intact/deleted ratio” value was “A (an IC50 ratio greater than or equal to 10 fold)”.

`Cc1cc(NC(=O)C(=O)N2CCCC[C@H]2C(C)C)cnc1N` (single isomer, unassigned) [Compound 192]: the IC50 on PRMT5 [1] is 50 to 500 nM; at PRMT5 [2] (read-out: No Cofactor/rel IC50), 50 to 500 nM; at PRMT5 [3] it was below 50 nM; in test [4] (setting [8]), above 1000 nM; in test [5] (setting [11]) it was 100 to 1000 nM; in test [6] (setting [10]), above 10 µM. In addition, in test [5] (SDMA in-cell western), the MTAP intact/deleted ratio entry is on record as “A (an IC50 ratio greater than or equal to 10 fold)”.

For the compound `CC1(C)CCC[C@@H]2CN(C(=O)C(=O)Nc3cncc(C(N)=O)c3)CC[C@H]21` (single isomer, unassigned) [Compound 193], the IC50 on PRMT5 [1] is 50 to 500 nM; at PRMT5 [2] (read-out: No Cofactor/rel IC50), 50 to 500 nM; at PRMT5 [3], below 50 nM; in test [4] (setting [8]) it was above 1000 nM; in test [5] (setting [11]), below 100 nM; in test [6] (setting [10]), 1 to 10 µM. Also, the MTAP intact/deleted ratio entry in test [5] (SDMA in-cell western) is on record as “A (an IC50 ratio greater than or equal to 10 fold)”.

For the compound `NC(=O)c1cncc(NC(=O)C(=O)N2C[C@H]3CC[C@H](C3)[C@H]2c2ccccc2)c1` (single isomer, unassigned) [Compound 194], the IC50 is above 500 nM on PRMT5 [1]; above 500 nM on PRMT5 [2] (read-out: No Cofactor/rel IC50); above 500 nM on PRMT5 [3]; above 1000 nM in test [4] (setting [8]); above 1000 nM in test [5] (setting [11]); above 10 µM in test [6] (setting [10]). The MTAP intact/deleted ratio result in test [5] (SDMA in-cell western) is on record as “C (an IC50 ratio of less than 3 fold)”.

As for `Cc1ncc(NC(=O)C(=O)N2C[C@H](C)CC[C@H]2c2ccccc2)cc1C(N)=O` (single isomer, unassigned) [Compound 196], the IC50 was above 500 nM on PRMT5 [1]; above 500 nM on PRMT5 [2] (read-out: No Cofactor/rel IC50); above 500 nM on PRMT5 [3]; above 1000 nM in test [4] (setting [8]); above 1000 nM in test [5] (setting [11]); above 10 µM in test [6] (setting [10]). For the same compound, the MTAP intact/deleted ratio result in test [5] (SDMA in-cell western) was “C (an IC50 ratio of less than 3 fold)”.

On to `CC1(C)CCC[C@H]2CN(C(=O)C(=O)Nc3cncc(C(N)=O)c3)CC[C@@H]21` (single isomer, unassigned) [Compound 197], for which the IC50 was 50 to 500 nM at PRMT5 [1]; above 500 nM at PRMT5 [2] (read-out: No Cofactor/rel IC50); 50 to 500 nM at PRMT5 [3]; above 1000 nM in test [4] (setting [8]); above 1000 nM in test [5] (setting [11]); above 10 µM in test [6] (setting [10]). In addition, the MTAP intact/deleted ratio result in test [5] (SDMA in-cell western) is “C (an IC50 ratio of less than 3 fold)”.

For `C[C@H]1CC[C@H](c2cccs2)N(C(=O)C(=O)Nc2cncc(C(N)=O)c2)C1` (single isomer, unassigned) [Compound 198], the IC50 at PRMT5 [1] is 50 to 500 nM; at PRMT5 [2] (read-out: No Cofactor/rel IC50) it was below 50 nM; on PRMT5 [3], below 50 nM; in test [4] (setting [8]), 100 to 1000 nM; in test [5] (setting [11]), below 100 nM; in test [6] (setting [10]), below 1 µM. In addition, the MTAP intact/deleted ratio entry in test [5] (SDMA in-cell western) was “A (an IC50 ratio greater than or equal to 10 fold)”.

On to `COc1ncc(NC(=O)C(=O)N2CCCCC2c2ccccc2)cc1C(N)=O` (single isomer, unassigned) [Compound 199, 2-methoxy-5-(2-oxo-2-(2-phenylpiperidin-1-yl)acetamido)nicotinamide], for which the IC50 was above 500 nM on PRMT5 [1]; above 500 nM at PRMT5 [2] (read-out: No Cofactor/rel IC50); 50 to 500 nM on PRMT5 [3]; above 1000 nM in test [4] (setting [8]); above 1000 nM in test [5] (setting [12]); above 10 µM in test [6] (setting [10]). For the same compound, the MTAP intact/deleted ratio result in test [5] (SDMA in-cell western) was “C (an IC50 ratio of less than 3 fold)”.

Consider `Cc1ncc(NC(=O)C(=O)N2C[C@@H](C)CC[C@@H]2c2ccccc2)cc1C(N)=O` (single isomer, unassigned) [Compound 200], for which the IC50 at PRMT5 [1] was 50 to 500 nM; at PRMT5 [2] (read-out: No Cofactor/rel IC50), 50 to 500 nM; at PRMT5 [3] it was below 50 nM; in test [4] (setting [8]) it was above 1000 nM; in test [5] (setting [11]) it was below 100 nM; in test [6] (setting [10]) it was 1 to 10 µM. Moreover, the MTAP intact/deleted ratio result in test [5] (SDMA in-cell western) is “A (an IC50 ratio greater than or equal to 10 fold)”.

As for `C[C@@H]1CC[C@@H](c2cccs2)N(C(=O)C(=O)Nc2cncc(C(N)=O)c2)C1` (single isomer, unassigned) [Compound 201], the IC50 was above 500 nM on PRMT5 [1]; above 500 nM on PRMT5 [2] (read-out: No Cofactor/rel IC50); above 500 nM at PRMT5 [3]; above 1000 nM in test [4] (setting [8]); above 1000 nM in test [5] (setting [11]); above 10 µM in test [6] (setting [10]). Moreover, the MTAP intact/deleted ratio result in test [5] (SDMA in-cell western) is listed as “C (an IC50 ratio of less than 3 fold)”.

In the case of `COc1ncc(NC(=O)C(=O)N2CCCCC2c2ccccc2)cc1C(N)=O` (single isomer, unassigned) [Compound 202, 2-methoxy-5-(2-oxo-2-(2-phenylpiperidin-1-yl)acetamido)nicotinamide], the IC50 at PRMT5 [1] is 50 to 500 nM; at PRMT5 [2] (read-out: No Cofactor/rel IC50), 50 to 500 nM; at PRMT5 [3], below 50 nM; in test [4] (SDMA in-cell western), above 1000 nM; in test [5] (setting [12]) it was 100 to 1000 nM; in test [6] (viability assay), above 10 µM. Also, the MTAP intact/deleted ratio entry in test [5] (SDMA in-cell western) is on record as “A (an IC50 ratio greater than or equal to 10 fold)”.

`Cc1cc(NC(=O)C(=O)N2CCCC[C@@H]2C(C)C)cnc1N` (single isomer, unassigned) [Compound 204]: the IC50 on PRMT5 [1] is above 500 nM; on PRMT5 [2] (read-out: No Cofactor/rel IC50), above 500 nM; at PRMT5 [3], 50 to 500 nM; in test [4] (setting [8]), above 1000 nM; in test [5] (setting [11]), above 1000 nM; in test [6] (setting [10]), above 10 µM. Also, in test [5] (SDMA in-cell western), the MTAP intact/deleted ratio result is “C (an IC50 ratio of less than 3 fold)”.

These data come from patent US11999727B2 (Tango Therapeutics, Inc., priority 2020, dated 2024).
